Where two headings read alike, the source gives them in different places.
Tests used:
Format in all cases: cell-based
HIV-1 wild type IIIB = test: Single cycle infectivity assay in HeLa P4-2 cells, wild type virus
Experimental: (§1) An assay for measuring the inhibition of acute HIV-1 infection with HeLa P4-2 cells in a single cycle infectivity assay was conducted using methods described in Joyce et al., J. Biol. Chem. 2002, 277: 45811, Hazuda et al., Science 2000, 287: 646, and Kimpton et al, J. Virol. 1992, 66: 2232. Proviral plasmids encoding viruses containing specific mutations in the integrase gene (N155H, Q148R, Y143R, E92Q, or G140S/Q148H) were generated by site-directed mutagenesis, and viruses were produced by transfecting 293T cells with the appropriate proviral plasmids.

[1] = system: HIV-1 integrase mutant virus N155H; test: Single cycle infectivity assay in HeLa P4-2 cells, integrase mutant N155H virus; settings: fold shift in IC50 versus wild type IIIB
Experimental: as §1

[2] = system: HIV-1 integrase mutant virus Q148R; test: Single cycle infectivity assay in HeLa P4-2 cells, integrase mutant Q148R virus; settings: fold shift in IC50 versus wild type IIIB
Experimental: as §1

[3] = system: HIV-1 integrase mutant virus G140S/Q148H; test: Single cycle infectivity assay in HeLa P4-2 cells, integrase mutant G140S/Q148H virus; settings: fold shift in IC50 versus wild type IIIB
Experimental: as §1

HIV-1 = test: Inhibition of acute HIV-1 infection of T-lymphoid cells (spread assay); settings: 10% FBS, read-out: IC95 (nM) in the presence of 10% FBS
Experimental: Assays for the inhibition of acute HIV-1 infection of T-lymphoid cells were conducted in accordance with Vacca, J. P. et al., Proc. Natl. Acad. Sci. USA 1994, 91: 4096.

[4] = system: HIV-1 integrase mutant virus Y143R; test: Single cycle infectivity assay in HeLa P4-2 cells, integrase mutant Y143R virus; settings: fold shift in IC50 versus wild type IIIB
Experimental: as §1

[5] = Human immunodeficiency virus 1, IIIB, HeLaP4-2, wild type IIIB
[6] = Human immunodeficiency virus 1, T-lymphoid

Row | SMILES | IC50 (HIV-1 wild type IIIB; [5]) | N155H (shift) [1] | Q148R (shift) [2] | G140S/Q148H (shift) [3] | IC95 (HIV-1; [6]) | Y143R (shift) [4] | IC50 (HIV-1 wild type IIIB; wild type IIIB) | IC95 (HIV-1)
1 | COC12CCC(N(C)C(=O)C(=O)N(C)C)(CC1)c1nc(C(=O)NCc3ccc(F)c(C)c3)c(O)c(=O)n1C2 [Example 14, N-(4-{[(4-Fluoro-3-methylbenzyl)amino]carbonyl}-5-hydroxy-9-methoxy-6-oxo-3,7-diazatricyclo[7.2.2.0^2,7]trideca-2,4-dien-1-yl)-N,N′,N′-trimethylethanediamide] | 12 nM | 2 fold | 1 fold | 4 fold | 13.1 nM | 2 fold |  | 
2 | CN(C(=O)C(=O)N1CCOCC1)C12CCC(Cn3c1nc(C(=O)NCc1ccc(F)cc1)c(O)c3=O)C2 (stereo not drawn) [Example 9, N-(4-Fluorobenzyl)-3-hydroxy-10-{methyl[morpholin-4-yl(oxo)acetyl]amino}-4-oxo-4,6,7,8,9,10-hexahydro-7,10-methanopyrimido[1,2-a]azepine-2-carboxamide] | 43 nM | 5 fold | 11 fold | 40 fold | 15 nM | 2 fold |  | 
3 | CC1C2CCC(N(C)C(=O)C(=O)N(C)C)(CO2)c2nc(C(=O)NCc3ccc(F)cc3)c(O)c(=O)n21 (single isomer, unassigned) [Example 27C, N-(4-{[(4-fluorobenzyl)amino]carbonyl}-5-hydroxy-8-methyl-6-oxo-10-oxa-3,7-diazatricyclo[7.2.2.0^2,7]trideca-2,4-dien-1-yl)-N,N′,N′-trimethylethanediamide] |  | 11 fold | 12 fold | >111 fold |  | 3 fold | 15 nM | 7.7 nM
4 | CC1(C)OCCn2c1nc(C(=O)NCc1ccc(F)cc1)c(O)c2=O [Compound Z, N-[(4-fluorophenyl)methyl]-3-hydroxy-9,9-dimethyl-4-oxo-4,6,7,9-tetrahydro-6H-pyrimido[2,1-c][1,4]oxazine-2-carboxamide, reference compound] |  | 32 fold | >34 fold | >34 fold |  | 1 fold | 34 nM | 
5 | CN(C)C(=O)C(=O)N(C)C1CCCCn2c1nc(C(=O)NCc1ccc(F)cc1)c(O)c2=O (stereo not drawn) [Compound Y, (—)N-(2-{[(4-fluorobenzyl)amino]-carbonyl}-3-hydroxy-4-oxo-4,6,7,8,9,10-hexahydropyrimido[1,2-a]azepin-10-yl)-N,N′,N′-trimethylethanediamide, reference compound] | 16 nM | 15 fold | 26 fold | 410 fold |  | 1 fold |  | 
6 | Cc1nnc(C(=O)NC(C)(C)c2nc(C(=O)NCc3ccc(F)cc3)c(O)c(=O)n2C)o1 [Compound X, raltegravir, reference compound] | 52 nM | 13 fold | 22 fold | 400 fold |  | 15 fold |  | 
7 | CC1C2CCC(NC(=O)C(=O)N(C)C)(CO2)c2nc(C(=O)NCc3ccc(F)cc3)c(O)c(=O)n21 (single isomer, unassigned) [Example 29B, N′-(4-{[(4-Fluorobenzyl)amino]carbonyl}-5-hydroxy-8-methyl-6-oxo-10-oxa-3,7-diazatricyclo[7.2.2.0^2,7]trideca-2,4-dien-1-yl)-N-dimethylethanediamide] |  | 1 fold | 3 fold | 2 fold |  | 2 fold | 69 nM | 
8 | CNC(=O)C(=O)N(C)C12CCC(OC1)C(C)n1c2nc(C(=O)NCc2ccc(F)cc2)c(O)c1=O (single isomer, unassigned) [Example 28B, N-(4-{[(4-fluorobenzyl)amino]carbonyl}-5-hydroxy-8-methyl-6-oxo-10-oxa-3,7-diazatricyclo[7.2.2.0^2,7]trideca-2,4-dien-1-yl)-N,N′-dimethylethanediamide] |  |  |  |  |  |  |  | 15.9 nM
